# Laboratory results taken from patent US8785416B2, “Sulphated disaccharides for the treatment of neurodegenerative and/or neurovascular diseases” (Bioiberica, S.A., priority 2009, dated 2014).
# Tests used:
# Assay type in all cases: cell-based
# rat hippocampal slices [1] = assay: Oxygen and glucose deprivation (1 hour OGD, 2 hours reoxygenation) in hippocampal slices, LDH release
# Method: (§1) Male Spague Dawley strain rats (250-325 g) were used. After anaesthesia by means of an intraperitoneal injection of 60 mg/Kg sodium pentobarbital (Euta-Lender®), they were decapitated with a guillotine and the brain was extracted after a craniotomy. The brain was immediately submersed in a dissection solution, a cold (4° C.) modified Krebs-Henseleit solution at pH 7.4, the composition of which is: 120 mM NaCl, 2 mM KCl, 0.5 mM CaCl2, 26 mM NaHCO3, 10 mM MgSO4, 1.18 mM KH2PO4, 11 mM glucose and 200 mM sucrose, bubbled with 95% O2-5% CO2. The hippocampi were isolated, embedded in 2% low melting point agarose (Sigma-Aldrich), and cut into 350 μm transverse slices in a vibratome (Leica VT1000S).
# After the cutting in the vibratome, the slices were transferred to a vial with sucrose-free dissection Krebs solution, bubbled with 95% O2-5% CO2 for 60 minutes (equilibrium period). […]
# For the protocol of 1 hour of OGD followed by 2 hours of reoxygenation, the viability was determined by measuring the release of LDH into the extracellular medium according to the method described in Example 3. The quantification of LDH was performed in samples taken (i) after the preincubation period, (ii) after the hour of OGD and (iii) after each hour of reoxygenation (1 hour and 2 hours).
# [2] = tested on: SH-SY5Y human neuroblastoma cells; assay: Generation of intracellular reactive oxygen species (ROS) after hydrogen peroxide, DCFDA fluorescence
# From the text: To determine the production of free radicals, the fluorescent probe 2″-7″-dichlorodihydrofluorescein diacetate (DCFDA) was used, which is sensitive to the presence of free radicals, such that when the latter are intracellularly generated there is an increase of fluorescence.
# When the fluorescent probe passes into the cell, intracellular esterases hydrolyze the probe, transforming it into DCFH2. Peroxidases, cytochrome C and Fe^2+ can oxidize the probe to DCF in the presence of hydrogen peroxide, and the accumulation of DCF in the cell can be measured as an increase of fluorescence at 530 nm when it is excited at 485 nm.
# SH-SY5Y human neuroblastoma cells were cultured following the procedure described in Example 3.
# For the fluorescence assays, the cells were seeded in 96-well plates with opaque walls at a density of 10,000 cells/well. […]
# To evaluate the effects of compound Ic on the generation of ROS, the cells were incubated with increasing concentrations of compound Ic (0.01 and 0.1 μM) for 24 hours and then they were preincubated with the fluorescent probe DCFDA for 45 minutes. Subsequently, the baseline fluorescence of each well, both of the wells containing cells and compound Ic and of those containing only the cells, was quantified. […] The baseline fluorescence of each well containing compound Ic was subtracted from it in order to obtain the net fluorescence. […]
# rat hippocampal slices [3] = assay: Oxygen and glucose deprivation (15 minutes OGD, 2 hours reoxygenation) in hippocampal slices, MTT cell viability
# Method: as §1
# After the cutting in the vibratome, the slices were transferred to a vial with sucrose-free dissection Krebs solution, bubbled with 95% O2-5% CO2 for 60 minutes (equilibrium period).
# After the equilibrating period, the medium was removed and an oxygenated solution (normal Krebs solution (120 mM NaCl, 2 mM KCl, 2 mM CaCl2, 26 mM NaHCO3, 1.19 mM MgSO4, 1.18 mM KH2PO4 and 11 mM glucose), bubbled with 5% CO2 and 95% O2 for 30 minutes (preincubation period), was introduced. The baseline slices were maintained in this oxygenated solution throughout the entire experiment. To induce OGD, the oxygenated solution was replaced with another one which lacked glucose and was bubbled with a mixture of gases of 5% CO2 and 95% N2 (anoxic solution). The slices were in a bath at 37° C. After inducing OGD, the anoxic medium was replaced with another one which contained the oxygenated solution (reoxygenation period).
# To evaluate the effect of the compounds, they were incubated for the 30 minutes of the preincubation and throughout the OGD and during the reoxygenation. Two OGD-reoxygenation protocols were used: (i) 1 hour of OGD and 2 hours of reoxygenation and (ii) 15 minutes of OGD followed by 2 hours of reoxygenation.
# When the OGD-reoxygenation protocol (ii): 15 minutes of OGD followed by 2 hours of reoxygenation was used, the slices were incubated with increasing concentrations of compound Ic (0.3 and 1 μM) or with increasing concentrations of compound Ib (1 and 3 μM). In the same study these two compounds of the invention were compared with N-acetylcysteine (NAC) at 10 mM. The baseline (slices in the absence of compound Ic or Ib and of OGD) and the control (slices in the absence of compound Ic or Ib and with OGD) were also included.
# For the protocol of 15 minutes of OGD followed by 2 hours of reoxygenation, the cell viability was evaluated by means of the tetrazolium salt MTT, which is internalized in those cells which are viable and are therefore capable of reducing the tetrazolium to formazan which is an insoluble and coloured product which is deposited in the […]. To that end, after the experiment had ended, the hippocampal slices were incubated with MTT at a final concentration of 0.5 mg/mL in a Krebs-HEPES solution (in mM: NaCl, 144; KCl, 5.9; MgCl2, 1.2; CaCl2, 2; HEPES, 10; glucose, 11; at pH 7.3) at 37° C. After 3 hours, the medium was removed and the formazan precipitated in the solution was dissolved in dimethylsulfoxide. Then, the absorbance was measured in a plate reader (Labsystems iEMS Reader MF), at 500 nm. The data were represented taking the result of the baseline slices, i.e., those not subjected to OGD, as 100% viability.
substance,measurement,setting,value
"methyl 2-acetamido-2-deoxy-3-O-(β-D-glucopyranosyluronic acid)-4,6-di-O-sulpho-α-D-glucopyranoside, trisodium salt [compound Ic]",protective effect against cell death (LDH release),"rat hippocampal slices [1]; 1 μM, at 2 hours of reoxygenation after 1 hour OGD",40%
same,effect on cell death after one hour of OGD followed by 2 hours of reoxygenation,rat hippocampal slices [1]; 1 and 10 μM,reduced cell death in a concentration-dependent
same,reduction in the formation of free radicals induced by hydrogen peroxide,"[2]; 0.1 μM, 24 hours incubation before 50 μM hydrogen peroxide",40%
same,ROS generated by hydrogen peroxide at 30 and 60 minutes,[2]; cells treated 24 hours with compound (0.01 and 0.1 μM) before 50 μM hydrogen peroxide,significantly reduced
same,"maximum statistically significant protection (cell viability, MTT)","rat hippocampal slices [3]; 1 μM, 15 minutes OGD, 2 hours reoxygenation, baseline 100%, control 67%",93%
same,efficacy in comparison with N-acetylcysteine,"rat hippocampal slices [3]; Ic 0.3 and 1 μM, Ib 1 and 3 μM vs N-acetylcysteine 10 mM",higher efficacy
